Measurements as given in ChEMBL document CHEMBL5034023, “Development of Multifunctional and Orally Active Cyclic Peptide Agonists of Opioid/Neuropeptide FF Receptors that Produce Potent, Long-Lasting, and Peripherally Restricted Antinociception with Diminished Side Effects” (J Med Chem, 2021).
Activity calls are given as the source filed them. Bridge positions count the residues as written; N and C are the ends. Square brackets hold non-standard residues; d marks the D form. Peptide text beside a SMILES is read from it. NMeF = CN[C@@H](Cc1ccccc1)C(=O)O

Assays:
[1] = target: T1, Neuropeptide FF receptor 1 (Homo sapiens, UniProt Q9GZQ6); assay: (§1) Agonist activity at NPFF1R (unknown origin) expressed in HEK293-A cells assessed as inhibition of forskolin-induced cAMP accumulation preincubated for 30 mins in presence of 3-isobutyl-1-methylxanthine followed by forskolin and compound addition by competitive PKA binding assay; type: functional, cell-based
T1 sequence (Q9GZQ6 whole entry): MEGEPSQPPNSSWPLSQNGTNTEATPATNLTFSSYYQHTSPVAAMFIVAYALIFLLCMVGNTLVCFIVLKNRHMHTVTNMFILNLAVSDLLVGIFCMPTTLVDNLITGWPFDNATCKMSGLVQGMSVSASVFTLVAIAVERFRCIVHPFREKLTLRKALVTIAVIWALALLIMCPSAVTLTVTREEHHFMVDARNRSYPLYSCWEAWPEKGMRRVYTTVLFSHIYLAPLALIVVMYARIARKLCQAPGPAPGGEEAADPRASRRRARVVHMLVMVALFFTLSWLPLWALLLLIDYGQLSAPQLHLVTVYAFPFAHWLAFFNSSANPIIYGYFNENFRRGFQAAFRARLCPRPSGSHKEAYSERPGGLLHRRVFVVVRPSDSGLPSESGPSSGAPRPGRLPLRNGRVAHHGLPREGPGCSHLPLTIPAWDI

Mus musculus [2] = assay: Antinociceptive activity against Kunming mouse model of thermal-induced nociception assessed as prolongation of tail-flick latency period at 0.5 pmol, icv in presence of RF9 measured up to 240 mins by tail-flick test; type: functional, organism-based; settings: time min <=240
[3] = Apparent volume of distribution in Kunming mouse at 868.1 nmol/kg, po measured up to 120 mins by LC-MS/MS analysis; type: ADME, organism-based; settings: in vivo, 2 h
[4] = Apparent volume of distribution in Kunming mouse at 868.1 nmol/kg, iv measured up to 120 mins by LC-MS/MS analysis; type: ADME, organism-based; settings: in vivo, read-out: Vd(app)
Mus musculus [5] = assay: Antinociceptive activity against Kunming mouse model of thermal-induced nociception assessed as prolongation of tail-flick latency period at 2 pmol, icv in presence of NTI measured up to 240 mins by tail-flick test; type: functional, organism-based; settings: time min <=240
[6] = Toxicity in Kunming mouse assessed as inhibition of gastrointestinal transit at 8681 nmol/kg, po measured after 30 mins by charcoal meal test relative to control; type: organism-based; parameters: scale not given: the % may be the effect or the level left; settings: in vivo, 0.5 h
[7] = target: Kappa-type opioid receptor (Homo sapiens, UniProt P41145); type: functional, cell-based, HEK293-A
Chain of Kappa-type opioid receptor (P41145 whole entry): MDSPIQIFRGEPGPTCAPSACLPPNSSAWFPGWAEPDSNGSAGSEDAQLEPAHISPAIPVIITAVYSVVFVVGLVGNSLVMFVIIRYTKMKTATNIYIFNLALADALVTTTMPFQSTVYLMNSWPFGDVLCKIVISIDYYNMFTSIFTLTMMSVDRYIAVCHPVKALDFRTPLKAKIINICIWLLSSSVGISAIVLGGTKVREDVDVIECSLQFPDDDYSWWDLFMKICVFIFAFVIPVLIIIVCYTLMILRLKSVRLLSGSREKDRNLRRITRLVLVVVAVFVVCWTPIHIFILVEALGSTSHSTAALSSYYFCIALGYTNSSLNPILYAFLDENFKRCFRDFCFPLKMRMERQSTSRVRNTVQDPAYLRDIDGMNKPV

[8] = Toxicity in Kunming mouse assessed as effect on locomotor activity at 86.8 to 868.1 nmol/kg, po measured for 150 mins by open field test; type: organism-based; settings: in vivo, 2.5 h, dose 86.8-868.1 nmol/kg
Mus musculus [9] = assay: Antinociceptive activity against Kunming mouse model of thermal-induced nociception assessed as prolongation of tail-flick latency period at 2 pmol, icv in presence of nor-BNI measured up to 240 mins by tail-flick test; type: functional, organism-based; settings: time min <=240
Mus musculus [10] = assay: Antinociceptive activity against Kunming mouse model of thermal-induced nociception assessed as prolongation of tail-flick latency period at 8.68 nmol/kg, sc in presence of RF9 at 5 mg/kg, sc measured up to 240 mins by tail-flick test; type: functional, organism-based; settings: time min <=240
Mus musculus [11] = assay: Antinociceptive activity against sc dosed Kunming mouse model of thermal-induced nociception assessed as fold shift in duration of analgesic effect by tail-flick test relative to DN-9; type: functional
[12] = Half life in Kunming mouse at 868.1 nmol/kg, iv measured up to 120 mins by LC-MS/MS analysis; type: ADME, organism-based; settings: in vivo
Mus musculus [13] = assay: Antinociceptive activity against Kunming mouse model of thermal-induced nociception assessed as duration of analgesic effect administered subcutaneously by tail-flick test; type: functional
Mus musculus [14] = assay: Antinociceptive activity against Kunming mouse model of thermal-induced nociception assessed as prolongation of tail-flick latency period at 8.68 nmol/kg, po in presence of nor-BNI at 1 mg/kg, ip measured up to 240 mins by tail-flick test; type: functional, organism-based; settings: time min <=240
Mus musculus [15] = assay: Antinociceptive activity against Kunming mouse model of thermal-induced nociception assessed as peripheral analgesia administered subcutaneously by tail-flick test; type: functional; settings: sc
[16] = Toxicity in Kunming mouse assessed as effect on arterial partial pressure of carbon dioxide at 868.1 nmol/kg, po measured up to 30 mins by blood gas analyzer; type: organism-based; settings: in vivo, 0.5 h
Mus musculus [17] = assay: Antinociceptive activity against Kunming mouse model of thermal-induced nociception assessed as prolongation of tail-flick latency period at 8.68 nmol/kg, po in presence of beta-FNA at 1 mg/kg, ip measured up to 240 mins by tail-flick test; type: functional, organism-based; settings: time min <=240
[18] = Tmax in Kunming mouse at 868.1 nmol/kg, po measured up to 120 mins by LC-MS/MS analysis; type: ADME, organism-based; settings: in vivo
[19] = Toxicity in Kunming mouse assessed as effect on conditioned place preference at 868.1 nmol/kg, po measured for 5 days; type: organism-based; settings: in vivo, 120 h, time 5 day
Mus musculus [20] = assay: Antinociceptive activity against Kunming mouse model of thermal-induced nociception assessed as maximum possible effect at 8.68 nmol/kg, po measured after 30 min by tail flick test relative to control; type: functional; settings: 0.5 h
Mus musculus [21] = assay: Antinociceptive activity against Kunming mouse model of thermal-induced nociception assessed as prolongation of tail-flick latency period at 8.68 nmol/kg, sc in presence of NALM at 1 mg/kg, sc measured up to 240 mins by tail-flick test; type: functional, organism-based; settings: time min <=240
Mus musculus [22] = assay: Antinociceptive activity against Kunming mouse model of thermal-induced nociception assessed as prolongation of tail-flick latency period at 8.68 nmol/kg, po measured up to 240 mins by tail-flick test; type: functional, organism-based; settings: time min <=240
Mus musculus [23] = assay: Antinociceptive activity against Kunming mouse model of thermal-induced nociception assessed as prolongation of tail-flick latency period at 8.68 nmol/kg, po in presence of Nal at 1 mg/kg, ip measured up to 240 mins by tail-flick test; type: functional, organism-based; settings: time min <=240
[24] = target: T1, Neuropeptide FF receptor 1; assay: as §1, with “accumulation by measuring maximal efficacy” for “accumulation”, “assay relative to control” for “assay”; type: functional, cell-based; settings: filed as agonist
[25] = Clearance in Kunming mouse at 868.1 nmol/kg, iv measured up to 120 mins by LC-MS/MS analysis; type: ADME, organism-based; settings: in vivo
Mus musculus [26] = assay: Antinociceptive activity against Kunming mouse model of thermal-induced nociception assessed as prolongation of tail-flick latency period at 8.68 nmol/kg, po in presence of NTI at 1 mg/kg, ip measured up to 240 mins by tail-flick test; type: functional, organism-based; settings: time min <=240
[27] = target: Delta-type opioid receptor (Homo sapiens, UniProt P41143); assay: Agonist activity at DOR (unknown origin) expressed in HEK293-A cells assessed as inhibition of forskolin-induced cAMP accumulation preincubated for 30 mins in presence of 3-isobutyl-1-methylxanthine followed by forskolin and compound addition by competitive PKA binding assay; type: functional, cell-based
Chain of Delta-type opioid receptor (P41143 whole entry): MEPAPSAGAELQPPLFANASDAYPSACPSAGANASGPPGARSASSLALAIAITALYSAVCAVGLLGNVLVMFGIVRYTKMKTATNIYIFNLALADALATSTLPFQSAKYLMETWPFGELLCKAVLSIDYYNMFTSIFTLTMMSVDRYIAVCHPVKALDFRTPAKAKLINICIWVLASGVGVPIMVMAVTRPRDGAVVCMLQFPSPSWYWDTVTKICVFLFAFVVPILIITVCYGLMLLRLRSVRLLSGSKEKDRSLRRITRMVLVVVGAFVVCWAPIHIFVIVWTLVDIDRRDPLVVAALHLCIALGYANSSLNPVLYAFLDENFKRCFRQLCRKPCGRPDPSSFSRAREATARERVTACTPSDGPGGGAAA

[28] = Toxicity in Kunming mouse assessed as effect on arterial partial pressure of oxygen at 868.1 nmol/kg, po measured up to 30 mins by blood gas analyzer; type: organism-based; settings: in vivo, 0.5 h
Mus musculus [29] = assay: Antinociception activity in po dosed Kunming mouse model of sciatic nerve CCI-induced neuropathic pain assessed as reduction in thermal hypersensitivity by measuring reduction in paw withdrawl threshold measured up to 180 mins by Hargreaves test; type: functional; settings: 3 h, time min <=180
[30] = Toxicity in Kunming mouse assessed as effect on motor coordination at 86.8 to 868.1 nmol/kg, po measured after 10 to 40 mins by Rotarod test; type: organism-based; settings: in vivo, dose lower 86.8 nmol/kg, time lower 10 min, dose upper 868.1 nmol/kg, time upper 40 min
[31] = Toxicity in Kunming mouse assessed as inhibition of gastrointestinal transit at 868.1 nmol/kg, po in presence of RF9 at 10 mg/kg, ip measured after 30 mins by charcoal meal test; type: organism-based; settings: in vivo, 0.5 h
Mus musculus [32] = assay: Antinociceptive activity against po dosed Kunming mouse model of carrageenan-induced mechanical inflammatory pain assessed as reduction in paw withdrawl threshold measured up to 180 mins by Von Frey assay; type: functional; settings: 3 h, time min <=180

CN1C(=O)CNC(=O)[C@H](NC(=O)[C@@H](N)Cc2ccc(O)cc2)CCCCNC(=O)C[C@@H](C(=O)N2CCC[C@H]2C(=O)N[C@@H](CCC(N)=O)C(=O)N[C@@H](CCCNC(=N)N)C(=O)N[C@@H](Cc2ccccc2)C(N)=O)NC(=O)[C@@H]1Cc1ccccc1 (H-Y[dK]G[NMeF]DPQRF-NH2; lactam 2-5)
EC50 [1]: 580 nM | Activity (Mus musculus [2]): Active | Vd(app) [3]: 15.9 L/kg | Vd [4]: 1.2 L/kg | Activity (Mus musculus [5]): Active | Activity [6]: > 50% | EC50 [7]: 39 nM | Activity [8]: Non-Toxic | Activity (Mus musculus [9]): inactive | Activity (Mus musculus [10]): Active | fold change (FC) (Mus musculus [11]): 2.7 | half-life [12]: 28.1 min | Tlast (Mus musculus [13]): 240 min | Activity (Mus musculus [14]): inactive | ED50 (Mus musculus [15]): 0.00028 µmol/kg | Activity [16]: Non-Toxic | Activity (Mus musculus [17]): inactive | Tmax [18]: 1 min | Activity [19]: Non-Toxic | MPE (Mus musculus [20]): 94.2% | Activity (Mus musculus [21]): inactive | Activity (Mus musculus [22]): Active | Activity (Mus musculus [23]): inactive | Emax [24]: 73.7% | clearance [25]: 30 mL/min/kg | Activity (Mus musculus [26]): Active | EC50 [27]: 546 nM | Activity [28]: Non-Toxic | ED50 (Mus musculus [29]): 0.00322 µmol/kg | Activity [30]: Non-Toxic | Activity [31]: Non-Toxic | ED50 (Mus musculus [32]): 0.00344 µmol/kg
